This note sets out measurements from US10815229B1, “Benzenesulfonamide compounds and their use as therapeutic agents” (Xenon Pharmaceuticals Inc., priority 2016, dated 2020).

One assay concerns the target NaV1.1 (Homo sapiens (Human), UniProt P35498). Briefly: Sodium Influx Assay (Flux), NaV1.1. It is filed as cell-based. The note with it: Trex HEK293 cells, ANG2 dye; arithmetic mean.
The next assay has as its target NaV1.6 (Homo sapiens (Human), UniProt Q9UQD0). Briefly: Sodium Influx Assay (Flux), NaV1.6. The note with it: read-out: Flux NaV1.6 IC50; Trex HEK293 cells, ANG2 dye; arithmetic mean.

Regarding “(S)-2-fluoro-4-((1-(2-hydroxybenzyl)-pyrrolidin-3-yl)(methyDamino)-5-methyl-N-(thiazol-4-yl)benzenesulfonamide [Example 113]”, the IC50 against NaV1.1 was 17.9 µM; at NaV1.6, 0.258 µM.

The term IC50 denotes the midpoint of a concentration-inhibition curve.
